In ChEMBL document CHEMBL5523766 (J Med Chem, 2024):

Legend:
Granta-519 [1] = assay: Induction of apoptosis in human Granta-519 cells assessed as viable cells at 2000 nM incubated for 48 hrs by Annexin-V-FITC/propidium iodide staining based flow cytometry (reference value: 92.7 %); type: functional; conditions: read-out: Activity
Granta-519 [2] = assay: Antiproliferative activity against human Granta-519 cells assessed as inhibition of cell growth incubated for 72 hrs by MTS assay; type: functional, cell-based; conditions: Granta-519, 72 h
A2780 = assay: Antiproliferative activity against human A2780 cells assessed as inhibition of cell growth incubated for 72 hrs by MTS assay; type: functional, cell-based; conditions: A2780, 72 h
OCI-Ly10 = assay: Antiproliferative activity against human OCI-Ly10 cells assessed as inhibition of cell growth incubated for 72 hrs by MTS assay; type: functional, cell-based; conditions: OCI-Ly10, 72 h
LoVo = assay: Antiproliferative activity against human LoVo cells assessed as inhibition of cell growth incubated for 72 hrs by MTS assay; type: functional, cell-based
HCT-116 = assay: Antiproliferative activity against human HCT-116 cells assessed as inhibition of cell growth incubated for 72 hrs by MTS assay; type: functional, cell-based; conditions: HCT-116, 72 h
NCI-H446 = assay: Antiproliferative activity against human NCI-H446 cells assessed as inhibition of cell growth incubated for 72 hrs by MTS assay; type: functional, cell-based; conditions: NCI-H446, 72 h
HT-29 = assay: Antiproliferative activity against human HT-29 cells assessed as inhibition of cell growth incubated for 72 hrs by MTS assay; type: functional, cell-based; conditions: HT-29, 72 h
SUD4 = assay: Antiproliferative activity against human SU-DHL-4 cells assessed as inhibition of cell growth incubated for 72 hrs by MTS assay; type: functional, cell-based; conditions: SU-DHL-4, 72 h
DLD-1 = assay: Antiproliferative activity against human DLD-1 cells assessed as inhibition of cell growth incubated for 72 hrs by MTS assay; type: functional, cell-based; conditions: DLD-1, 72 h
CAPAN-1 = assay: Antiproliferative activity against human CAPAN-1 cells assessed as inhibition of cell growth incubated for 72 hrs by MTS assay; type: functional, cell-based; conditions: CAPAN-1, 72 h
PC-3 = assay: Antiproliferative activity against human PC-3 cells assessed as inhibition of cell growth incubated for 72 hrs by MTS assay; type: functional, cell-based; conditions: PC-3, 72 h
[3] = Tmax in BALB/c mouse at 75 mg/kg,po measured upto 24 hrs by LC-MS/MS analysis; type: ADME, organism-based; conditions: in vivo
[4] = Cmax in BALB/c mouse at 75 mg/kg,po measured upto 24 hrs by LC-MS/MS analysis; type: ADME, organism-based; conditions: in vivo
[5] = AUCinfinity in BALB/c mouse at 75 mg/kg,po measured upto 24 hrs by LC-MS/MS analysis; type: ADME, organism-based; conditions: in vivo
[6] = Half life in BALB/c mouse at 75 mg/kg,po measured upto 24 hrs by LC-MS/MS analysis; type: ADME, organism-based; conditions: in vivo
[7] = Brain to plasma ratio in ICR mouse at 50 mg/kg,po measured upto 24 hrs by LC-MS/MS analysis; type: ADME, organism-based
Granta-519 [8] = assay: Induction of cell cycle arrest in human Granta-519 cells assessed as accumulation of cells at G1 phase at 2000 nM incubated for 24 hrs by propidium iodide staining based flow cytometry (reference value: 45.83 %); type: functional
Granta-519 [9] = assay: Induction of cell cycle arrest in human Granta-519 cells assessed as accumulation of cells at S phase at 2000 nM incubated for 24 hrs by propidium iodide staining based flow cytometry (reference value: 44.81 %); type: functional
Granta-519 [10] = assay: Induction of apoptosis in human Granta-519 cells assessed as early apoptotic cells at 2000 nM incubated for 48 hrs by Annexin-V-FITC/propidium iodide staining based flow cytometry (reference value: 3.75 %); type: functional
Granta-519 [11] = assay: Induction of apoptosis in human Granta-519 cells assessed as late apoptotic cells at 2000 nM incubated for 48 hrs by Annexin-V-FITC/propidium iodide staining based flow cytometry (reference value: 3.07 %); type: functional
Granta-519 [12] = assay: Induction of apoptosis in human Granta-519 cells assessed as necrotic cells at 2000 nM incubated for 48 hrs by Annexin-V-FITC/propidium iodide staining based flow cytometry (reference value: 0.429 %); type: functional

C[C@@H]1COCCN1c1cc(C2([S@](C)(=N)=O)CC2)nc(-c2cc[nH]c3nccc2-3)n1 [CERALASERTIB]
viability at 2 µM (Granta-519 [1]): 78% | IC50 (Granta-519 [2]): 0.55 µM | IC50 (A2780): 0.62 µM | IC50 (OCI-Ly10): 0.52 µM | IC50 (LoVo): 1.14 µM | IC50 (HCT-116): 1.12 µM | IC50 (NCI-H446): 1.96 µM | IC50 (HT-29): 2.59 µM | IC50 (SUD4): 2.26 µM | IC50 (DLD-1): 5.28 µM | IC50 (CAPAN-1): 5.54 µM | IC50 (PC-3): 11.3 µM | Tmax [3]: 0.25 h | Cmax [4]: 12000 ng/mL | AUC(0-inf) [5]: 41600 ng·h/mL | half-life [6]: 1.93 h | BPR [7]: 6.6% | Activity (Granta-519 [8]): 30.16% | Activity (Granta-519 [9]): 67.69% | Activity (Granta-519 [10]): 8.66% | Activity (Granta-519 [11]): 10.3% | Activity (Granta-519 [12]): 3.07%
